{"source": "patent US20250276068A1", "about": "“PHARMACEUTICAL COMPOSITIONS OF POLYPEPTIDE CONJUGATES AND METHODS OF USES THEREOF” (BEIJING QL BIOPHARMACEUTICAL CO., LTD., priority 2022, published 2025)", "molecules": {"B1": {"name": "Molecule 002 (peptide)", "peptide": "H[Aib]EGTFTSDVSSYLEGQAAREFIAWLVRGGGGAQPGAQPGAQPGAQPGAQPGAQPGAQPGAQPGAQPGQK([AEEA-AEEA-γGlu-C18 diacid])P", "notes": "Mono-acylated GLP-1 polypeptide conjugate; also called 1006"}, "B2": {"name": "Molecule 019 (peptide)", "peptide": "H[Aib]EGTFTSDVSSYLEEQAAREFIAWLVRGGGGAQPGAQPGAQPGAQPGAQPGAQPGAQPGAQPGAQPGQK([AEEA-AEEA-γGlu-C18 diacid])P", "notes": "Mono-acylated GLP-1 polypeptide conjugate; also called 1023"}, "B3": {"name": "Molecule 012 (peptide)", "peptide": "H[Aib]EGTFTSDVSSYLEEQAAK([AEEA-AEEA-γGlu-C18 diacid])EFIAWLVRGGGGAQPGAQPGAQPGAQPGAQPGAQPGAQPGAQPGAQPGQK([AEEA-AEEA-γGlu-C18 diacid])P", "notes": "Double-acylated GLP-1 polypeptide conjugate"}}, "key": {"C57BL/6 mice": {"system": "C57BL/6 mice", "test": "Body weight loss in C57 lean mice after single s.c. dose", "assay_type": "in vivo", "settings": "30 nmol/kg s.c. once", "procedure": "Method: 10 week old male C57BL/6 mice were injected subcutaneously with protein once on Day1. Body weight was measured daily and five animals were used for each treatment group. Body weight was monitored for each individual animal. % BW loss=100*(BW on Day n−BW on Day 1)/(BW on Day 1). […] The area under the curve for body weight loss (%) from 0 until 8 days (AUG ΔBW 0-8d) was calculated."}, "db/db mice": {"system": "db/db mice", "test": "Non-fasting glucose in db/db mice after single s.c. dose", "assay_type": "in vivo", "procedure": "Method: 10 weeks old male db/db mice were injected subcutaneously with GLP-1 polypeptide conjugate once. […] Delta blood glucose is glucose subtracted by baseline level. […] The area under the curve for delta blood glucose from 0 until 192 hours (AUCΔBG 0-192h) was calculated."}, "human serum albumin [1]": {"biological_target": "human serum albumin (Homo sapiens, UniProt P02768)", "test": "Human serum albumin binding by surface plasmon resonance (Biacore 8K)", "settings": "human serum albumin on CM5 chip, SPR", "protocol": "Method: Binding of molecules to serum albumin was characterized by surface plasmon resonance in a Biacore 8K instrument. Serum albumin from different species was covalently bound to CM5 sensor chips surface until 4000 RU was reached. The chip was blocked by 1M ethanolamine with flowrate of 10 μL/min for 420 s. Each molecule sample was diluted and injected at a flow rate of 30 μL/min to allow for binding to chip-bound albumin for 120 s and for dissociation for 300 s. Binding buffer without molecule was sent over the chip at the flow rate of 20 seconds to allow spontaneous dissociation of bound molecule for 30 seconds."}, "GLP-1 receptor": {"biological_target": "GLP-1 receptor (Homo sapiens, UniProt P43220)", "sequence (P43220 24-463, species assumed)": "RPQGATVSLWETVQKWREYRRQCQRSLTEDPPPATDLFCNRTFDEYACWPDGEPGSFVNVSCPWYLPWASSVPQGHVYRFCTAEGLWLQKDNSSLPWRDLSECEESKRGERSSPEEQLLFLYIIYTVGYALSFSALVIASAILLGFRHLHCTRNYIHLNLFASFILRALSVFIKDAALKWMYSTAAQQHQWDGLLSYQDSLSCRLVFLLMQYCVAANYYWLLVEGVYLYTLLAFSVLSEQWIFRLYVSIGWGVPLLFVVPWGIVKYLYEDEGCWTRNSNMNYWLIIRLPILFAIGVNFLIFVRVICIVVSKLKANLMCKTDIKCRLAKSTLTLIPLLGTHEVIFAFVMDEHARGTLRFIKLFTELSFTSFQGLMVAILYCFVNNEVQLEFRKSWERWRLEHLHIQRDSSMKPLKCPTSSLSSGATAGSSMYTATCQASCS", "settings": "J. Med. Chem. 2015, 58, 7370-7380; cited from earlier work"}, "human serum albumin [2]": {"biological_target": "T1, human serum albumin (human, UniProt P02768 25-609)", "T1 construct": "also called HSA", "test": "SPR (Biacore 8K), albumin on CM5 chip"}}, "note": "*1 amine or outer side, *2 acyl side, *3 side chain or, on linkers, in order; H or OH if unused. Side-chain parts run from the residue outwards. [ ]: non-standard residue; d: D form. The star is where a group is joined. C18 diacid = O=C(O)CCCCCCCCCCCCCCCCC(=O)*; γGlu = O=C(O)[C@H](CCC(=O)[*:2])N[*:1]; AEEA = NCCOCCOCC(=O)O; Aib = CC(C)(N)C(=O)O"}
{"molecule": "semaglutide", "values": [{"measurement": "AUC ΔBW 0-8 d (day*%)", "setting": "C57BL/6 mice; Study 1 (FIG. 1A)", "value": "−9.3", "unit": "day*%"}, {"measurement": "AUC ΔBW 0-8 d (day*%)", "setting": "C57BL/6 mice; Study 2 (FIG. 1B)", "value": "−13.2", "unit": "day*%"}, {"measurement": "AUC ΔBG 0-192 h", "setting": "db/db mice; 3 nmol/kg s.c. once", "value": -317.0, "unit": "mmol·h/L"}, {"measurement": "AUC ΔBG 0-192 h", "setting": "db/db mice; 10 nmol/kg s.c. once", "value": -583.4, "unit": "mmol·h/L"}, {"measurement": "AUC ΔBG 0-192 h", "setting": "db/db mice; 30 nmol/kg s.c. once", "value": -527.1, "unit": "mmol·h/L"}, {"measurement": "Rmax (RU)", "setting": "human serum albumin [1]", "value": 55.2, "unit": "RU"}, {"measurement": "loss in GLP-1 receptor binding in presence of human serum albumin (HSA) relative to its unconjugated counterpart", "setting": "GLP-1 receptor", "value": 939, "unit": "fold"}]}
{"molecule": "B1", "values": [{"measurement": "binding result", "setting": "human serum albumin [2]", "value": "binds"}]}
{"molecule": "B2", "values": [{"measurement": "binding result", "setting": "human serum albumin [2]", "value": "binds"}]}
{"molecule": "B3", "values": [{"measurement": "binding result", "setting": "human serum albumin [2]", "value": "binds"}]}
